Experimental data published in patent US5013759A, “Compounds and compositions having anti-inflammatory and analgesic activity” (The Procter & Gamble Company, priority 1990, dated 1991).

Tests used:
[1] = system: Croton Oil Inflamed Mouse Ear; assay: Croton Oil Inflamed Mouse Ear Test (Topical treatment); type: in vivo, Adult male Cox ICR mice; settings: 1% solution in ethanol, two doses, 4 h after croton oil, All values significant p 0.05
Method: Substituted phenylacetic acid amide compounds were tested for anti-inflammatory activity using the Croton Oil Inflamed Mouse Ear Test (Topical treatment).
Adult male Cox ICR mice, 25-35 g, were treated at about 3:00 PM on the left ear with 25 l of a 1% solution of the test compound in ethanol. They were placed in individual stainless steel cages where food and water was available ad libitum. The following morning around 8:00 AM the mice were dosed a second time on the same ear. One hour after the second dose, 25 l of 2% croton oil in acetone was applied to the left ear of the control and test groups.
Four hours after the croton oil treatment, the mice were sacrificed by cervical dislocation and both ears removed. A 5 mm punch biopsy was taken from each ear and weighed to the nearest 0.1 mg on a Cahn electrobalance.
The results were expressed as percent inhibition of the swelling response compared to the control group according to the formula:
(C-Ta..n)/C×100=Percent Inhibition
where C is the average difference between the left and right ear weights of the control group, and
Ta..n is the difference between left and right ear weights of animal (a..n) in a treated group.
Statistical tests for significance between groups were made using a one way analysis of variance of the ear weight differences.

[2] = Oral administration of soft gelatin capsules to a human (Example IV); type: in vivo; settings: two capsules each containing 225 mg of the composition, 60 kg human
Method: (§1) A composition for oral administration is prepared by combining the following ingredients:
N-oleyl-4-hydroxy-3-methoxyphenylacetamide, 1.10 kg

[3] = Oral administration of syrup to an adult human (Example V); type: in vivo; settings: one teaspoon of syrup, 70 kg adult human
Method: as §1
N-oleyl-4-hydroxy-3-methoxyphenylacetamide, 250 g
Propylene glycol, 1800 ml
Artificial Cherry flavor, 10 ml
The above ingredients are combined to produce a syrup and are packaged under sterile conditions in 6 oz. bottles.

[4] = system: Carrageenan Rat Paw Edema; assay: Carrageenan Rat Paw Edema Test (Oil Vehicle); type: in vivo, Male Sprague Dawley rats; settings: 4 h after carrageenan, All values significant p 0.05
Method: Substituted phenylacetic acid amide compounds were tested for anti-inflammatory activity using the Carrageenan Rat Paw Edema Test (Oil Vehicle).
Male Sprague Dawley rats (Charles River Laboratories) were weighed and food fasted overnight. The animals were divided into four to six groups of six animals each according to body weights, average about 145 g, so that each group had about the same average weight (within 10 g).
The following morning five ml of water was dosed orally via stomach tube to each animal to facilitate paw swelling. The animals were dosed with the test compound and then placed in individual cages. The drug was dissolved in ethyl oleate: benzyl alcohol, 98:2, and delivered via stomach tube in 1 ml volume.
Paw volumes (0 time) were determined on both hind paws with a mercury displacement device equipped with a transducer and digitizer. […] Four hours after the carrageenan injection, the paw volumes are again determined.
The results are expressed as percent inhibition of the mean paw volume of the test group relative to the control group according to the formula: […]
Ta..n is the difference in paw swelling in the treated animals (a..n). Statistical differences are determined by one way analysis of variance.

[5] = Topical application to forearm of a human (Example VI); type: in vivo; settings: 0.4 ml to 80 cm^2 of forearm, 60 kg human
Method: A composition for topical administration is prepared by combining the following ingredients:
N-oleyl-4-hydroxy-3-methoxyphenylacetamide, 4 g
The phenylacetamide is melted with slight warming and combined with the other ingredients.

SMILES	Percent Inhibition (of the swelling response compared to control) [1]	further results
C=CCCCCCCCCNC(=O)Cc1ccc(O)c(OC)c1 [N-9-decenyl-4-hydroxy-3-methoxyphenylacetamide]	98.9 +/- 11.9%	
CCCCCCCC(C)NC(=O)Cc1ccc(O)c(OC)c1 (stereo not drawn) [N-(2-nonanyl)-4-hydroxy-3-methoxyphenylacetamide]	55.6 +/- 26.5%	
CCCCCCC(C)NC(=O)Cc1ccc(O)c(OC)c1 (stereo not drawn) [N-(2-octanyl-)-4-hydroxy-3-methoxyphenylacetamide]	48.1 +/- 15.8%	
C=C(CCCCCCCCC)CCCCCCCCNC(=O)Cc1ccc(O)c(OC)c1 [N-(9-methylene-1-octadecanyl-)-4-hydroxy-3-methoxyphenyl acetamide]		Analgesia [2]: increased analgesic effect; Reduction of inflammation [2]: substantially similar reduction of inflammation
COc1cc(CC(=O)NC2CCCCCCC2)ccc1O [N-cyclooctyl-4-hydroxy-3-methoxyphenylacetamide]		Analgesia [3]: weaker analgesic effect; Reduction of inflammation [3]: substantially similar reduction of inflammation
CCCCCCCCCCNC(=O)Cc1ccc(O)c(OC)c1 [N-decyl-4-hydroxy-3-methoxyphenylacetamide]	58.1 +/- 29.4%	
CCCCCCCCCCCCNC(=O)Cc1ccc(O)c(OC)c1 [N-dodecyl-4-hydroxy-3-methoxyphenylacetamide]	55.3 +/- 20.7%	
CCCCCCCNC(=O)Cc1ccc(O)c(OC)c1 [N-heptyl-4-hydroxy-3-methoxyphenylacetamide]	69.4 +/- 33.9%	
CCCCCCCCCNC(=O)Cc1ccc(O)c(OC)c1 [N-nonyl-4-hydroxy-3-methoxyphenylacetamide]	80.7 +/- 23.0%	
CCCCCCCCNC(=O)C(C)c1ccc(O)c(OC)c1 (stereo not drawn) [N-octyl-4-hydroxy-3-methoxyphenyl-2-methyl-acetamide]	88.9 +/- 24.1%	
CCCCCCCCNC(=O)Cc1ccc(O)c(OC)c1 [N-octyl-4-hydroxy-3-methoxyphenylacetamide]	89.1 +/- 15.7%	
CCCCCCCC/C=C\CCCCCCCCNC(=O)Cc1ccc(O)c(OC)c1 [N-oleyl-4-hydroxy-3-methoxyphenylacetamide]	83.5 +/- 11.9%	Percent Inhibition (of mean paw volume relative to control) ([4]; 200 mg/kg oral in ethyl oleate: benzyl alcohol 98:2): 89.3 +/- 10.8%; Percent Inhibition (of mean paw volume relative to control) ([4]; 400 mg/kg oral in ethyl oleate: benzyl alcohol 98:2): 95.6 +/- 11.2%
CCCCCCCCCCCCCCCCCCNC(=O)Cc1ccc(O)c(OC)c1 [N-stearyl-4-hydroxy-3-methoxyphenylacetamide]		Analgesia [5]: weaker analgesic effect; Reduction of inflammation [5]: substantially similar reduction of inflammation
